Data from paper PMC10321319 (Nature, 2022).
≈ marks a conversion by molar mass, not a printed value. Where two headings read alike, the source gives them in different places. Positions of bridges follow the written chain, without caps; N, C: chain ends. Non-standard residues stand in square brackets, D forms with d. Residues, ends and D or L forms follow the SMILES beside them. *: point of attachment. Octanoyl(3-OH) = CCCCCC(O)CC(=O)*; Decanoyl = CCCCCCCCCC(=O)*; Nonanoyl = CCCCCCCCC(=O)*; X1 = CC[C@H](C)CCCCC(=O)*; dDab = NCC[C@@H](N)C(=O)O; Heptanoyl = CCCCCCC(=O)*; Octanoyl = CCCCCCCC(=O)*; Dab = NCC[C@H](N)C(=O)O

How the values were obtained:
[1] = test system: E. cloacae ATCC13047 (ΔphoP/Q+phoP/Q); conditions: for Fold increase in MIC: E. cloacae ATCC13047 upon introduction of phoP/Q; for MIC: n=2
[2] = test system: K. pneumoniae ATCC13883 (pMQ124-mcr-1); conditions: for Fold increase in MIC: K. pneumoniae 13883 upon introduction of mcr-1; for MIC: n=2
[3] = test system: A. baumannii SM1536 (pMQ124xlab1-mcr-1); test: MIC, microbial susceptibility assay; type: cell-based, Acinetobacter baumannii; conditions: for Fold increase in MIC: A. baumannii SM1536 upon introduction of mcr-1
[4] = test system: A. baumannii 0301 (mcr-1); test: MIC, microbial susceptibility assay; type: cell-based, Acinetobacter baumannii; conditions: A. baumannii 0301 upon introduction of mcr-1
A. baumannii 0301 = conditions: XDR A. baumannii 0301, mcr-1 −; ref CDC & FDA Antibiotic Resistant Isolate Bank; cited from earlier work
A. baumannii 0282 = conditions: XDR A. baumannii 0282, mcr-1 −; ref CDC & FDA Antibiotic Resistant Isolate Bank; cited from earlier work
A. baumannii 0286 = conditions: XDR A. baumannii 0286, mcr-1 −; ref CDC & FDA Antibiotic Resistant Isolate Bank; cited from earlier work
A. baumannii 0296 = conditions: XDR A. baumannii 0296, mcr-1 −; ref CDC & FDA Antibiotic Resistant Isolate Bank; cited from earlier work
A. baumannii 0295 = conditions: XDR A. baumannii 0295, mcr-1 −; ref CDC & FDA Antibiotic Resistant Isolate Bank; cited from earlier work
A. baumannii 0287 = conditions: XDR A. baumannii 0287, mcr-1 −; ref CDC & FDA Antibiotic Resistant Isolate Bank; cited from earlier work
[5] = test system: E. cloacae ATCC13047 (ΔphoP/Q); conditions: n=2
[6] = test system: K. pneumoniae 0497 (mcr-1); conditions: n=2
A. baumannii ATCC17978 [7] = test: CHIR-090 inhibition assay, growth curves; type: cell-based, Acinetobacter baumannii; conditions: 48 h growth curve
E. cloacae 0150 = test: MIC, microbial susceptibility assay; type: cell-based, Enterobacter cloacae; conditions: n=2
[8] = test system: A. baumannii ATCC17978 (pMQ124xlab1-mcr-1); test: MIC, microbial susceptibility assay; type: cell-based, Acinetobacter baumannii; conditions: n=2
S. aureus SH1000 = test: MIC, microbial susceptibility assay; type: cell-based; conditions: n=2
P. aeruginosa PA01 = test: MIC, microbial susceptibility assay; type: cell-based, Pseudomonas aeruginosa; conditions: n=2
E. faecium Com15 = test: MIC, microbial susceptibility assay; type: cell-based; conditions: n=2
K. pneumoniae 10031 = conditions: n=2
A. baumannii ATCC17978 [9] = test: MIC, microbial susceptibility assay; type: cell-based, Acinetobacter baumannii; conditions: n=2
A. baumannii SM1536 = conditions: n=2
[10] = test system: S. typhimurium 0635 (mcr-1); test: MIC, microbial susceptibility assay; type: cell-based; conditions: S. typhimurium 0635, mcr-1 clinical isolate; n=2
[11] = test system: pairs of colistin sensitive and resistant strains of K. pneumoniae and A. baumannii (mcr-1 plasmid); type: cell-based
P. vulgaris 49132 = conditions: Proteus vulgaris, intrinsically colistin resistant (L-Ara4N)
K. pneumoniae ATCC13883 = conditions: n=2

## CC[C@H](C)CCCCC(=O)N[C@@H](CCN)C(=O)N[C@H](C(=O)N[C@H](CCN)C(=O)N[C@H]1CCNC(=O)[C@H](CC(C)C)NC(=O)[C@H](CCN)NC(=O)[C@H](CCN)NC(=O)[C@H]([C@@H](C)CC)NC(=O)[C@@H](CC(C)C)NC(=O)[C@H](CCN)NC1=O)[C@@H](C)O [Macolacin-3Dab] (X1-[Dab]T[dDab][Dab][Dab][dL]I[Dab][Dab]L; lactam 4-C)
[1]
  Fold increase in MIC: 4
[2]
  Fold increase in MIC: 8

## CCCCCC(O)CC(=O)N[C@@H](CCN)C(=O)N[C@H](C(=O)N[C@H](CO)C(=O)N[C@H]1CCNC(=O)[C@H](CC(C)C)NC(=O)[C@H](CCN)NC(=O)[C@H](CCN)NC(=O)[C@H]([C@@H](C)CC)NC(=O)[C@@H](CC(C)C)NC(=O)[C@H](CCN)NC1=O)[C@@H](C)O (stereo partly drawn) [L5] ({Octanoyl(3-OH)}-[Dab]T[dS][Dab][Dab][dL]I[Dab][Dab]L; lactam 4-C; N-terminus assumed)
[3]
  Fold increase in MIC: 4
[4]
  Fold increase in MIC: 2

## CCCCCCC(=O)N[C@@H](CCN)C(=O)N[C@H](C(=O)N[C@H](CO)C(=O)N[C@H]1CCNC(=O)[C@H](CC(C)C)NC(=O)[C@H](CCN)NC(=O)[C@H](CCN)NC(=O)[C@H]([C@@H](C)CC)NC(=O)[C@@H](CC(C)C)NC(=O)[C@H](CCN)NC1=O)[C@@H](C)O [L1] (Heptanoyl-[Dab]T[dS][Dab][Dab][dL]I[Dab][Dab]L; lactam 4-C; N-terminus assumed)
[3]
  Fold increase in MIC: 8
[4]
  Fold increase in MIC: 2

## CCCCCCCCCC(=O)N[C@@H](CCN)C(=O)N[C@H](C(=O)N[C@H](CO)C(=O)N[C@H]1CCNC(=O)[C@H](CC(C)C)NC(=O)[C@H](CCN)NC(=O)[C@H](CCN)NC(=O)[C@H]([C@@H](C)CC)NC(=O)[C@@H](CC(C)C)NC(=O)[C@H](CCN)NC1=O)[C@@H](C)O [L4] (Decanoyl-[Dab]T[dS][Dab][Dab][dL]I[Dab][Dab]L; lactam 4-C; N-terminus assumed)
[3]
  Fold increase in MIC: 8
[4]
  Fold increase in MIC: 1

## CCCCCCCC(=O)N[C@@H](CCN)C(=O)N[C@H](C(=O)N[C@H](CO)C(=O)N[C@H]1CCNC(=O)[C@H](CC(C)C)NC(=O)[C@H](CCN)NC(=O)[C@H](CCN)NC(=O)[C@H]([C@@H](C)CC)NC(=O)[C@@H](CC(C)C)NC(=O)[C@H](CCN)NC1=O)[C@@H](C)O [L2] (Octanoyl-[Dab]T[dS][Dab][Dab][dL]I[Dab][Dab]L; lactam 4-C; N-terminus assumed)
[3]
  Fold increase in MIC: 8
[4]
  Fold increase in MIC: 2

## O=C(O)c1cn(C2CC2)c2cc(N3CCNCC3)c(F)cc2c1=O [Ciprofloxacin]
A. baumannii 0301
  MIC: >8 µg/mL
A. baumannii 0282
  MIC: >8 µg/mL
A. baumannii 0286
  MIC: >8 µg/mL
A. baumannii 0296
  MIC: >8 µg/mL
A. baumannii 0295
  MIC: >8 µg/mL
A. baumannii 0287
  MIC: >8 µg/mL

## COc1cc(Cc2cnc(N)nc2N)cc(OC)c1OC [Trimethoprim]
A. baumannii 0301
  MIC: >8 µg/mL
A. baumannii 0282
  MIC: >8 µg/mL
A. baumannii 0286
  MIC: >8 µg/mL
A. baumannii 0296
  MIC: >8 µg/mL
A. baumannii 0295
  MIC: >8 µg/mL
A. baumannii 0287
  MIC: >8 µg/mL

## CN(C)c1ccc(O)c2c1C[C@H]1C[C@H]3[C@H](N(C)C)C(O)=C(C(N)=O)C(=O)[C@@]3(O)C(O)=C1C2=O [Minocycline]
A. baumannii 0301
  MIC: 16 µg/mL (≈ 35 µM)
A. baumannii 0282
  MIC: 8 µg/mL (≈ 17.5 µM)
A. baumannii 0286
  MIC: 8 µg/mL (≈ 17.5 µM)
A. baumannii 0296
  MIC: <=4 μg/ml
A. baumannii 0295
  MIC: 16 µg/mL (≈ 35 µM)
A. baumannii 0287
  MIC: <=4 μg/ml

## CC1(C)S[C@@H]2[C@H](NC(=O)[C@H](N)c3ccccc3)C(=O)N2[C@H]1C(=O)O [Ampicillin]
A. baumannii 0301
  MIC: >32 µg/mL
A. baumannii 0282
  MIC: >32 µg/mL
A. baumannii 0286
  MIC: 32 µg/mL (≈ 91.6 µM)
A. baumannii 0296
  MIC: >32 µg/mL
A. baumannii 0295
  MIC: >32 µg/mL
A. baumannii 0287
  MIC: >32 µg/mL

## CC[C@H](C)CCCCC(=O)N[C@@H](CCN)C(=O)N[C@H](C(=O)N[C@H](CO)C(=O)N[C@H]1CCNC(=O)[C@H]([C@@H](C)O)NC(=O)[C@H](CCN)NC(=O)[C@H](CCN)NC(=O)[C@H]([C@@H](C)CC)NC(=O)[C@@H](CC(C)C)NC(=O)[C@H](CCN)NC1=O)[C@@H](C)O [Macolacin-10Thr] (X1-[Dab]T[dS][Dab][Dab][dL]I[Dab][Dab]T; lactam 4-C)
[1]; E. cloacae ATCC13047 (Δ phoP/Q+phoP/Q), SAR table
  MIC: 16 µg/mL (≈ 13.8 µM)
[1]
  Fold increase in MIC: 16
[5]; E. cloacae ATCC13047 (Δ phoP/Q), SAR table
  MIC: 1 µg/mL (≈ 0.865 µM)
[2]; K. pneumoniae 13883 (mcr-1), SAR table
  MIC: 64 µg/mL (≈ 55.3 µM)
[2]
  Fold increase in MIC: 64
[6]; K. pneumoniae 0497 (mcr-1), SAR table
  MIC: 8 µg/mL (≈ 6.92 µM)

## C[C@@H](O)[C@H](NC(=O)c1ccc(C#Cc2ccc(CN3CCOCC3)cc2)cc1)C(=O)NO [CHIR-090]
A. baumannii ATCC17978 [7]
  A. baumannii growth with CHIR-090 alone: does not inhibit A. baumannii growth

## CO/N=C(\C(=O)N[C@@H]1C(=O)N2C(C(=O)O)=C(COC(C)=O)CS[C@H]12)c1csc(N)n1 [Cefotaxime]
A. baumannii 0301
  MIC: >64 µg/mL
A. baumannii 0282
  MIC: >64 µg/mL
A. baumannii 0286
  MIC: >64 µg/mL
A. baumannii 0296
  MIC: >64 µg/mL
A. baumannii 0295
  MIC: >64 µg/mL
A. baumannii 0287
  MIC: >64 µg/mL

## CO/N=C(\C(=O)N[C@@H]1C(=O)N2C(C(=O)O)=C(CSc3nc(=O)c(=O)[nH]n3C)CS[C@H]12)c1csc(N)n1 [Ceftriaxone]
A. baumannii 0301
  MIC: >32 µg/mL
A. baumannii 0282
  MIC: >32 µg/mL
A. baumannii 0286
  MIC: >32 µg/mL
A. baumannii 0296
  MIC: >32 µg/mL
A. baumannii 0295
  MIC: >32 µg/mL
A. baumannii 0287
  MIC: >32 µg/mL

## Polymyxin B
E. cloacae 0150
  MIC: 1 µg/mL
[8]
  MIC: 16 µg/mL
S. aureus SH1000
  MIC: >128 µg/mL
[3]; A. baumannii SM1536 (pMQ124xlab1-mcr-1), n=2
  MIC: 128 µg/mL
P. aeruginosa PA01
  MIC: 2 µg/mL
[1]; E. cloacae ATCC13047 (ΔphoP/Q+phoP/Q)
  MIC: 32 µg/mL
[1]
  Fold increase in MIC: 32
[1]; E. cloacae phoP/Q deletion rescued with phoP/Q plasmid
  susceptibility of strain: resistant
E. faecium Com15
  MIC: >128 µg/mL
K. pneumoniae 10031
  MIC: 1 µg/mL
A. baumannii ATCC17978 [9]; A. baumannii 17978, ESKAPE panel
  MIC: 0.5 µg/mL
A. baumannii ATCC17978 [9]; A. baumannii ATCC17978, mcr-1 engineered pairs
  MIC: 0.5 µg/mL
A. baumannii SM1536
  MIC: 1 µg/mL
[5]; E. cloacae ATCC13047 (ΔphoP/Q)
  MIC: 1 µg/mL
[2]
  Fold increase in MIC: 128
[2]; K. pneumoniae ATCC13883 (pMQ124-mcr-1)
  MIC: 128 µg/mL
[10]
  MIC: 16 µg/mL
[11]
  increase in MIC upon mcr-1 expression: ≥ 32 fold
P. vulgaris 49132
  MIC: > 128 µg/mL
[6]; K. pneumoniae 0497, mcr-1 clinical isolate
  MIC: 32 µg/mL
K. pneumoniae ATCC13883
  MIC: 1 µg/mL

## CCCCCCCCC(=O)N[C@@H](CCN)C(=O)N[C@H](C(=O)N[C@H](CO)C(=O)N[C@H]1CCNC(=O)[C@H](CC(C)C)NC(=O)[C@H](CCN)NC(=O)[C@H](CCN)NC(=O)[C@H]([C@@H](C)CC)NC(=O)[C@@H](CC(C)C)NC(=O)[C@H](CCN)NC1=O)[C@@H](C)O [L3] (Nonanoyl-[Dab]T[dS][Dab][Dab][dL]I[Dab][Dab]L; lactam 4-C; N-terminus assumed)
[3]
  Fold increase in MIC: 4
[4]
  Fold increase in MIC: 2
